These are literature values, as cited in PMC4033579 (Journal of experimental therapeutics & oncology, 2012).

Data set [1] relates to breast, ovarian, prostate tumor cells. Conditions: prostate cells in culture.

As to `Cc1cc(Nc2nc(N[C@@H](C)c3ncc(F)cn3)ncc2Cl)[nH]n1` [AZD 1840], the “cytotoxicity at concentrations that inhibit Tyr705 phosphorylation” value in data set [1] is reported as “not cytotoxic”. In the data set on human tumor xenografts, the “angiogenesis in human tumor xenografts” value was “reduction in angiogenesis” and the “growth of human tumor xenografts” value is given as “reduced growth”.
